Literature values, collected in US9943543B2, “Treating male infertility secondary to sperm oxidative stress” (priority 2009, dated 2018).

## CCC(=O)O[C@H](CC(=O)[O-])C[N+](C)(C)C [Propionyl-L-carnitine]
After oral administration
  time to peak concentrations: about 1 hour
After oral administration of propionyl-L-carnitine
  time of rise in L-carnitine plasma levels after administration: 2 to 6 h
